Experimental data: patent publication US12251387B2, “Substituted quinoxalines and benzo[c][1,2,5]oxadiazoles as DNA-PK inhibitors” (Vertex Pharmaceuticals Incorporated, priority 2013, dated 2025)

These compounds were tested against DNA-PK (Homo sapiens, UniProt P78527) (assay: DNA-PK Inhibition Assay (standard radiometric kinase assay, 33P-ATP, peptide substrate)). Conditions: radiometric assay, approximately 6 nM DNA-PK, 100 μM ATP, 45 min; fit to competitive tight-binding inhibition; read-out: Ki for the inhibition of DNA-PK.
Type: biochemical
How it was run: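 Radiometric transfer of 33P from ATP (100 μM) to peptide substrate (0.8 mg/mL) by about 6 nM DNA-PK with 10 μg/mL sheared dsDNA, pH 7.5 HEPES/MgCl2, 45 min, phosphoric acid quench, filter capture and scintillation counting. Ki fitted to a competitive tight-binding inhibition model.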

Ki [nM]	Structure (SMILES)
< 100	COc1cccnc1N[C@H]1CC[C@@H](Oc2cc(N3CCOCC3)cc3nccnc23)CC1 [Compound 592]
< 100	Cc1ncc(N[C@H]2CC[C@@H](Oc3cc(N4CCOCC4)cc4nccnc34)CC2)nc1C [Compound 314]
< 100	Cc1nccc(N[C@H]2C[C@@H](Oc3cc(N4CCOCC4)cc4nccnc34)C2)n1 [Compound 357]
< 100	CC(C)(C)OC(=O)N1CCn2cnc(N[C@H]3CC[C@@H](Oc4cc(N5CCOCC5)cc5nccnc45)CC3)c2C1 [Compound 296]
< 100	c1cnc2c(O[C@H]3CC[C@@H](Nc4ncc5occc5n4)CC3)cc(N3CCOCC3)cc2n1 [Compound 563]
< 100	FC(F)(F)c1cccc(N[C@H]2CC[C@@H](Oc3cc(N4CCOCC4)cc4nccnc34)CC2)n1 [Compound 587]
< 100	Cc1nnc2c(N[C@H]3CC[C@@H](Oc4cc(N5CCOCC5)cc5nccnc45)CC3)nccn12 [Compound 310]
< 100	c1cnc2c(O[C@H]3CC[C@@H](Nc4ncc(CCN5CCCCC5)cn4)CC3)cc(N3CCOCC3)cc2n1 [Compound 433]
< 100	Cc1ncn2ccnc(N[C@H]3CC[C@@H](Oc4cc(N5CCOCC5)cc5nccnc45)CC3)c12 [Compound 313]
< 100	c1cnc2c(O[C@H]3CC[C@@H](Nc4ncc(CN5CCOCC5)cn4)CC3)cc(N3CCOCC3)cc2n1 [Compound 530]
< 100	c1cnc2c(O[C@H]3CC[C@@H](Nc4ccc(OC5COC5)cn4)CC3)cc(N3CCOCC3)cc2n1 [Compound 638]
< 100	FC(F)(F)c1ccnc(N[C@H]2CC[C@@H](Oc3cc(N4CCOCC4)cc4nccnc34)CC2)c1 [Compound 589]
< 100	COC(c1ccc(N[C@H]2CC[C@@H](Oc3cc(N4CCOCC4)cc4nccnc34)CC2)nc1)C(F)(F)F (some centres unmarked) [Compound 629]
< 100	c1cnc2c(O[C@H]3CC[C@@H](Nc4ccc(OCCN5CCCCC5)cn4)CC3)cc(N3CCOCC3)cc2n1 [Compound 640]
< 100	Cc1cccnc1N[C@H]1CC[C@@H](Oc2cc(N3CCOCC3)cc3nccnc23)CC1 [Compound 586]
< 100	Clc1cc2nccn2c(N[C@H]2CC[C@@H](Oc3cc(N4CCOCC4)cc4nccnc34)CC2)n1 [Compound 538]
< 100	CC(C)c1ccnc(N[C@H]2CC[C@@H](Oc3cc(N4CCOCC4)cc4nccnc34)CC2)n1 [Compound 634]
< 100	O=C(O)c1cc(N[C@H]2CC[C@@H](Oc3cc(N4CCOCC4)cc4nccnc34)CC2)ccc1F [Compound 420]
< 100	Cc1cncc(N[C@H]2CC[C@@H](Oc3cc(N4CCOCC4)cc4nccnc34)CC2)c1 [Compound 465]
< 100	COc1cnc(Cl)nc1N[C@H]1CC[C@@H](Oc2cc(N3CCOCC3)cc3nccnc23)CC1 [Compound 401]
< 100	c1cnc2c(O[C@H]3CC[C@@H](Nc4ncc(CCN5CCCC5)cn4)CC3)cc(N3CCOCC3)cc2n1 [Compound 432]
< 100	CN1CCN(C(=O)N[C@H]2CC[C@@H](Oc3cc(N4CCOCC4)cc4nccnc34)CC2)CC1 [Compound 414]
< 100	CCc1ncnc(N[C@H]2CC[C@@H](Oc3cc(C4=CCOCC4)cc4nccnc34)CC2)c1F [Compound 295]
< 100	Cc1nccc(N[C@H]2CC[C@@H](Oc3cc(N4CCO[C@H](CO)C4)cc4nccnc34)CC2)n1 [Compound 320]

Ki [nM]	Structure (SMILES)
< 100	Fc1nc(N[C@H]2CC[C@@H](Oc3cc(N4CCOCC4)cc4nccnc34)CC2)c2nc[nH]c2n1 [Compound 521]
< 100	Cn1nnc(-c2cnc(N[C@H]3CC[C@@H](Oc4cc(N5CCOCC5)cc5nccnc45)CC3)nc2)n1 [Compound 458]
< 100	Cc1ncc(F)c(N[C@H]2CC[C@@H](Oc3cc(N4CCOCC4)cc4nccnc34)CC2)n1 [Compound 494]
< 100	c1cnc2c(O[C@H]3CC[C@@H](Nc4ncc(-c5nnn[nH]5)cn4)CC3)cc(N3CCOCC3)cc2n1 [Compound 460]
< 100	CN1CCN(c2cc(N[C@H]3CC[C@@H](Oc4cc(N5CCOCC5)cc5nccnc45)CC3)ncn2)CC1 [Compound 537]
< 100	c1nc(N[C@H]2CC[C@@H](Oc3cc(N4CCOCC4)cc4nccnc34)CC2)c2c(n1)OCC2 [Compound 479]
< 100	Cc1noc(-c2ccc(N[C@H]3CC[C@@H](Oc4cc(N5CCOCC5)cc5nccnc45)CC3)nc2)n1 [Compound 278]
< 100	CN(C)CCOc1cnc(N[C@H]2CC[C@@H](Oc3cc(N4CCOCC4)cc4nccnc34)CC2)nc1 [Compound 624]
< 100	CNc1ncnc(N[C@H]2CC[C@@H](Oc3cc(N4CCOCC4)cc4nccnc34)CC2)c1F [Compound 469]
< 100	O=c1cc(N[C@H]2CC[C@@H](Oc3cc(N4CCOCC4)cc4nccnc34)CC2)cc[nH]1 [Compound 325]
< 100	CNC(=O)c1cc(N[C@H]2CC[C@@H](Oc3cc(N4CC5CC(C4)O5)cc4nccnc34)CC2)ncn1 [Compound 315]
< 100	Cc1ncc(N[C@H]2CC[C@@H](Oc3cc(N4CCOCC4)cc4nccnc34)CC2)cn1 [Compound 450]
< 100	CC(C)(O)c1ccc(N[C@H]2CC[C@@H](Oc3cc(N4CCOCC4)cc4nccnc34)CC2)nc1 [Compound 281]
< 100	Oc1nccc(N[C@H]2CC[C@@H](Oc3cc(N4CCOCC4)cc4nccnc34)CC2)n1 [Compound 280]
< 100	CN1CCC(c2ccnc(N[C@H]3CC[C@@H](Oc4cc(N5CCOCC5)cc5nccnc45)CC3)n2)CC1 [Compound 549]
< 100	OCc1cnc2cc(N3CCOCC3)cc(O[C@H]3CC[C@@H](Nc4ncccn4)CC3)c2n1 [Compound 617]
< 100	Oc1nc(N[C@H]2CC[C@@H](Oc3cc(N4CCOCC4)cc4nccnc34)CC2)nc(C2CC2)n1 [Compound 600]
< 100	N#Cc1cncnc1N[C@H]1CC[C@@H](Oc2cc(N3CCOCC3)cc3nccnc23)CC1 [Compound 422]
< 100	CCc1ccnc(N[C@H]2CC[C@@H](Oc3cc(N4CCOCC4)cc4nccnc34)CC2)n1 [Compound 633]
< 100	COc1cncc(N[C@H]2CC[C@@H](Oc3cc(N4CCOCC4)cc4nccnc34)CC2)c1 [Compound 446]
< 100	Cc1nccc(N[C@H]2CC[C@@H](Oc3cc(N4CCO[C@H](C)C4)cc4nccnc34)CC2)n1 [Compound 290]
< 100	OCc1cccnc1N[C@H]1CC[C@@H](Oc2cc(N3CCOCC3)cc3nccnc23)CC1 [Compound 584]
< 100	O=C(NCC1CCCCC1)N[C@H]1CC[C@@H](Oc2cc(N3CCOCC3)cc3nccnc23)CC1 [Compound 410]
< 100	c1cnc2c(O[C@H]3CC[C@@H](Nc4ncc(OCCCN5CCCCC5)cn4)CC3)cc(N3CCOCC3)cc2n1 [Compound 507]

Ki [nM]	Structure (SMILES)
< 100	CNC(=O)c1cnc(N[C@H]2CC[C@@H](Oc3cc(N4CCOCC4)cc4nccnc34)CC2)nc1C [Compound 287]
< 100	CCc1cc(N[C@H]2CC[C@@H](Oc3cc(N4CCOCC4)cc4nccnc34)CC2)nc(C)n1 [Compound 597]
< 100	CCc1ncnc(N[C@H]2CC[C@@H](Oc3cc(N4CC5CC(C4)O5)cc4nccnc34)CC2)c1F [Compound 318]
< 100	CC(C)(C)OC(=O)N1CCC(c2ccnc(N[C@H]3CC[C@@H](Oc4cc(N5CCOCC5)cc5nccnc45)CC3)n2)CC1 [Compound 557]
< 100	Cc1nc(C)c(C)c(N[C@H]2CC[C@@H](Oc3cc(N4CCOCC4)cc4nccnc34)CC2)n1 [Compound 436]
< 100	FC(F)(F)c1cccnc1N[C@H]1CC[C@@H](Oc2cc(N3CCOCC3)cc3nccnc23)CC1 [Compound 593]
< 100	CN1CCN(CCCOc2cnc(N[C@H]3CC[C@@H](Oc4cc(N5CCOCC5)cc5nccnc45)CC3)nc2)CC1 [Compound 508]
< 100	CN1CCC(NC(=O)N[C@H]2CC[C@@H](Oc3cc(N4CCOCC4)cc4nccnc34)CC2)CC1 [Compound 363]
< 100	CN1CCC(c2cnc(N(C)[C@H]3CC[C@@H](Oc4cc(N5CCOCC5)cc5nccnc45)CC3)nc2)CC1 [Compound 657]
< 100	CCN(CC)C(=O)N[C@H]1CC[C@@H](Oc2cc(N3CCOCC3)cc3nccnc23)CC1 [Compound 413]
< 100	FC(F)(F)c1cncc(N[C@H]2CC[C@@H](Oc3cc(N4CCOCC4)cc4nccnc34)CC2)c1 [Compound 429]
< 100	Cc1cnc(N[C@H]2CC[C@@H](Oc3cc(N4CCOCC4)cc4nccnc34)CC2)c(C)n1 [Compound 323]
< 100	c1nc(N[C@H]2CC[C@@H](Oc3cc(N4CCOCC4)cc4nccnc34)CC2)cc(OC2CNC2)n1 [Compound 480]
< 100	Cc1cc(C)n2nc(N[C@H]3CC[C@@H](Oc4cc(N5CCOCC5)cc5nccnc45)CC3)nc2n1 [Compound 299]
< 100	Cc1nc(C)c(F)c(N[C@H]2CC[C@@H](Oc3cc(N4CCOCC4)cc4nccnc34)CC2)n1 [Compound 463]
< 100	CN(C)CCOc1ccc(N[C@H]2CC[C@@H](Oc3cc(N4CCOCC4)cc4nccnc34)CC2)nc1 [Compound 654]
< 100	Cc1cnc(C)c(N[C@H]2CC[C@@H](Oc3cc(N4CCOCC4)cc4nccnc34)CC2)c1 [Compound 441]
< 100	FC(F)(F)c1cnc(N[C@H]2CC[C@@H](Oc3cc(N4CCOCC4)cc4nccnc34)CC2)nc1 [Compound 418]
< 100	Cc1cc(N[C@H]2CC[C@@H](Oc3cc(N4CCOCC4)cc4nccnc34)CC2)n[nH]1 [Compound 637]
< 100	c1cc(N[C@H]2CC[C@@H](Oc3cc(N4CCOCC4)cc4nccnc34)CC2)n2ncnc2c1 [Compound 581]
< 100	c1cnc2nc(N[C@H]3CC[C@@H](Oc4cc(N5CCOCC5)cc5nccnc45)CC3)sc2c1 [Compound 330]
< 100	c1cnc2c(O[C@H]3CC[C@@H](Nc4ccnc5[nH]ccc45)CC3)cc(N3CCOCC3)cc2n1 [Compound 385]
< 100	O=Cc1cnc2cc(N3CCOCC3)cc(O[C@H]3CC[C@@H](Nc4ncccn4)CC3)c2n1 [Compound 620]
